Source: patent US12240844B2 (Voronoi, Inc., priority 2019, dated 2025)

How the values were obtained:
Assay type in all cases: biochemical
[1] = target: T1, human GST-CLK1 (129-end) (Homo sapiens, UniProt P49759); assay: GST-CLK1 enzyme inhibition, ADP-Glo kinase assay; settings: ATP 10 uM
T1 construct: purified human GST-CLK1 (129-end, Signalchem) enzyme; GST; purchased Signalchem
Procedure, shortened: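 ADP formation was read by ADP-Glo luminescence after 1 h at 25° C with 3 ng human GST-CLK1 (129-end), substrate and 10 uM ATP in Tris pH 7.4 buffer containing MgCl2, BSA and DTT. Inhibition relative to untreated solvent control gave IC50 (nM), run in triplicate.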

[2] = target: LRRK2 (Homo sapiens, UniProt Q5S007); assay: LRRK2 enzyme inhibition, ADP-Glo kinase assay; parameters: purchased Invitrogen PR8604B
LRRK2, sequence (Q5S007 970-2527 limits assumed): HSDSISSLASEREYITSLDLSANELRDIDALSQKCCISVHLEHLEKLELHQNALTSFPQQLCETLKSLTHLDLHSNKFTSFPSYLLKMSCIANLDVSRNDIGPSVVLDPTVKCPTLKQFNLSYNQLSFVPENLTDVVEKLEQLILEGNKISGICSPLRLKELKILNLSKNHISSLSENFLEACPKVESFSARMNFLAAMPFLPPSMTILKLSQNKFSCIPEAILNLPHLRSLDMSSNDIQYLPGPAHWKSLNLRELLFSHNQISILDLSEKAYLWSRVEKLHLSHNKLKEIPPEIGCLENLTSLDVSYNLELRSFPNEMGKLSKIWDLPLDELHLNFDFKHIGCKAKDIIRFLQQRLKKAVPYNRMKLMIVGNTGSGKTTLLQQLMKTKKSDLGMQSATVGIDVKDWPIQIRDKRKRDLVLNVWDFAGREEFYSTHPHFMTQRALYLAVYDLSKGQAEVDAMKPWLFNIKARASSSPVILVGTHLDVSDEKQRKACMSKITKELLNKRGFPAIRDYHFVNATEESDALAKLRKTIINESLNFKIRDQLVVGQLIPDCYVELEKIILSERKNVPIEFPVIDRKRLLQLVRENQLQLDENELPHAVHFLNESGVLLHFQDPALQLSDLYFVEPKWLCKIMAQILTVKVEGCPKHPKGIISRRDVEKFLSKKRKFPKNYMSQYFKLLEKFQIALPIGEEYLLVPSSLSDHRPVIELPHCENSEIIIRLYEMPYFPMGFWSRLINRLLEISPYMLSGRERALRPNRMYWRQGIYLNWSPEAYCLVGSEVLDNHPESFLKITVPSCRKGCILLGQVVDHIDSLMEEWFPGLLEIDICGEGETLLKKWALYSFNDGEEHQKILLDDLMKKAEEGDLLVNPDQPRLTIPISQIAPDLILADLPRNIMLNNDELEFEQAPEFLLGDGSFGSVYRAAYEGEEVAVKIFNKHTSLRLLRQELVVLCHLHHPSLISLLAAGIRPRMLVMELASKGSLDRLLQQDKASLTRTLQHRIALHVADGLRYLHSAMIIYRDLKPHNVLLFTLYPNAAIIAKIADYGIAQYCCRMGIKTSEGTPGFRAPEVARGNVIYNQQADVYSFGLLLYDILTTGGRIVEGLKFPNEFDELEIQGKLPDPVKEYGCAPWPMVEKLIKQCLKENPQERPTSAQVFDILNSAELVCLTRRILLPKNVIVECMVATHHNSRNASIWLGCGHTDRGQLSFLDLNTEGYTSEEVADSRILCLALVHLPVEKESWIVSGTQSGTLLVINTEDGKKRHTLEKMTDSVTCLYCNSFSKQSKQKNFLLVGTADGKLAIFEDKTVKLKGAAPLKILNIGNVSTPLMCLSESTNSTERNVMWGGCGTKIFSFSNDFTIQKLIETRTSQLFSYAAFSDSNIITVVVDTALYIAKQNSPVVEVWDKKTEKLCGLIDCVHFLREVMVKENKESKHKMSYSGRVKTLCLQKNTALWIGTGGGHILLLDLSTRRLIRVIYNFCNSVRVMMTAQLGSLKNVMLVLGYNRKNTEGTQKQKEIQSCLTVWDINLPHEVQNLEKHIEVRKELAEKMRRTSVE
Procedure: In order to evaluate the inhibitory activity of the compounds according to the present invention on LRRK2, LRRK2 (G2019S), DYRK1, CLK1 and TTK kinases, the following experiment was performed.
Example compounds were reacted with the purified human LRRK2 (Invitrogen #PR8604B) enzyme to evaluate the enzyme inhibitory ability as follows. The reaction buffer was used as the composition of 40 mM Tris-HCl pH7.4, 20 mM MgCl2, 0.5 mg/ml BSA and 50 μM DTT, and the reaction of all test materials was performed on the reaction buffer. The compound was diluted with 10 mM DMSO stock in 12 steps by a serial dilution method, and the enzyme activity was measured at the final compound concentrations of 50, 10, 2, 0.4, 0.08, 0.016, 0.0032, 0.00064, 0.000128, 0.0000256, 0.00000512 and 0.000001024 μM. In the test, the human LRRK2 (25 ng) enzyme was reacted with the purified ATP (10 μM) and an enzyme substrate ([…]) at 25° C. for 2 hours, and then the enzyme activity was identified using the in vitro ADP-Glo™ kinase assay (promega). The enzyme activity reaction liquid, an ADP-Glo reaction liquid and an enzyme potency detection solution were reacted in a ratio of 2:2:1, and the degree of inhibition of enzyme activity was measured by Luminescence. The degree of inhibition of enzyme activity according to the treatment concentrations of the respective compounds was calculated based on the fluorescence of the enzyme activity of a solvent control group that was not treated with the compound, where the concentration of each compound to inhibit enzyme activity inhibition by 50% was determined as an IC50 (nM) value and obtained using Prism (Version 5.01, GraphPad) software.
In the table below, the following designations were used for the evaluation of enzyme inhibitory ability.

[3] = target: T2, human GST-DYRK1A (full length) (Homo sapiens, UniProt Q13627); assay: GST-DYRK1A enzyme inhibition, ADP-Glo kinase assay; settings: read-out: DYRK1 IC50
T2 construct: purified human GST-DYRK1A (full length, Thermo scientifics) enzyme; GST; purchased Thermo scientifics
Procedure, shortened: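 ADP-Glo luminescence quantified kinase activity after a 1 h, 25° C reaction of 10 ng full-length GST-tagged human DYRK1A, substrate and 10 uM ATP in Tris-HCl buffer pH 7.4 with MgCl2, BSA and DTT. Triplicate IC50 values (nM) calculated relative to untreated solvent control.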

[4] = target: LRRK2 (G2019S) (Homo sapiens, UniProt Q5S007, G2019S); assay: LRRK2 G2019S enzyme inhibition, ADP-Glo kinase assay; parameters: purchased SignalChem L10-12GG
LRRK2 (G2019S), sequence (Q5S007 970-2527 G2019S limits assumed): as the sequence (Q5S007 970-2527 limits assumed) above, with G1050S counted along it
Procedure, shortened: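 Activity read as ADP-Glo luminescence, normalized to untreated solvent control, with IC50 (nM) fitted over 12 final compound levels (top 50 μM). Reaction: 2 h, 25° C, human LRRK2 G2019S 16 ng, ATP 25 μM, substrate 0.2 μg, in Tris-HCl pH 7.4 with MgCl2, BSA and DTT.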

T1 sequence (P49759 129-484 limits assumed): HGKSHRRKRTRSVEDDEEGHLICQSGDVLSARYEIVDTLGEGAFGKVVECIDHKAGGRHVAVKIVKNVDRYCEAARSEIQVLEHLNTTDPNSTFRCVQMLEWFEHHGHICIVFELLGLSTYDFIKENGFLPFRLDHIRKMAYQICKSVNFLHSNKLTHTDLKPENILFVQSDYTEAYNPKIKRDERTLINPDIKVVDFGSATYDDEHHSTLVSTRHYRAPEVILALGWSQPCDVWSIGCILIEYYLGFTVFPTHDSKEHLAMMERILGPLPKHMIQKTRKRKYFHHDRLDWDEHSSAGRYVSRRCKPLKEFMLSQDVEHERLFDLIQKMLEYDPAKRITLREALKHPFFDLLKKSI

| Structure (SMILES) | IC50 [1] | IC50 [2] | IC50 [3] | IC50 [4] |
| --- | --- | --- | --- | --- |
| COCCNc1cc(Nc2ccc(C(=O)N3CCOCC3)c3c2OCCO3)nc2[nH]cc(Cl)c12 [Example 62, (8-((3-chloro-4-((2-methoxyethyl)amino)-1H-pyrrolo[2,3-b]pyridin-6-yl)amino)-2,3-dihydrobenzo[b] [1,4]dioxin-5-yl)(morpholino) methanone] | 301 to 1000 nM | < 100 nM | 301 to 1000 nM | < 100 nM |
| CNc1cc(Nc2ccc(S(=O)(=O)N3CCOCC3)cc2OC)nc2[nH]cc(Cl)c12 [Example 64, 3-chloro-N^6-(2-methoxy-4-(morpholinosulfonyl)phenyl)-N^4-methyl-1H-pyrrolo[2,3-b]pyridine-4,6-diamine] | 301 to 1000 nM | 301 to 1000 nM | 301 to 1000 nM | 301 to 1000 nM |
| CCNc1cc(Nc2ccc(S(=O)(=O)N3CCOCC3)cc2OC)nc2[nH]cc(Cl)c12 [Example 65, 3-chloro-N^4-ethyl-N^6-(2-methoxy-4-(morpholinosulfonyl)phenyl)-1H-pyrrolo[2,3-b]pyridine-4,6-diamine] | 301 to 1000 nM | 101 to 300 nM | 301 to 1000 nM | 301 to 1000 nM |
| COc1cc(S(=O)(=O)N2CCOCC2)ccc1Nc1cc(NC2CCC2)c2c(Cl)c[nH]c2n1 [Example 69, 3-chloro-N^4-cyclobutyl-N^6-(2-methoxy-4-(morpholinosulfonyl)phenyl)-1H-pyrrolo[2,3-b]pyridine-4,6-diamine] | 301 to 1000 nM | 301 to 1000 nM | 301 to 1000 nM | 301 to 1000 nM |
| COc1cc(S(=O)(=O)N2CCOCC2)ccc1Nc1cc(NC2CCCCC2)c2c(Cl)c[nH]c2n1 [Example 70, 3-chloro-N^4-cyclohexyl-N^6-(2-methoxy-4-(morpholinosulfonyl)phenyl)-1H-pyrrolo[2,3-b]pyridine-4,6-diamine] | 301 to 1000 nM | 301 to 1000 nM | 301 to 1000 nM | 301 to 1000 nM |
| COc1cc(S(C)(=O)=O)ccc1Nc1cc(NC2CCC2)c2c(Cl)c[nH]c2n1 [Example 85, 3-chloro-N^4-cyclobutyl-N^6-(2-methoxy-4-(methylsulfonyl)phenyl)-1H-pyrrolo[2,3-b]pyridine-4,6-diamine] | 301 to 1000 nM | 301 to 1000 nM | 101 to 300 nM | 301 to 1000 nM |
| CCNc1cc(Nc2ccc(C(=O)N3CCOCC3)c3c2OCC3)nc2[nH]cc(C(F)(F)F)c12 [Example 89, (7-((4-(ethylamino)-3-(trifluoromethyl)-1H-pyrrolo[2,3-b]pyridin-6-yl)amino)-2,3-dihydrobenzofuran-4-yl)(morpholino) methanone] | < 100 nM | < 100 nM | < 100 nM | < 100 nM |
| CNc1cc(Nc2ccc(C(=O)N3CCOCC3)c3c2OCCO3)nc2[nH]cc(C#N)c12 [Example 106, 4-(methylamino)-6-((8-(morpholine-4-carbonyl)-2,3-dihydrobenzo[b] [1,4]dioxin-5-yl)amino)-1H-pyrrolo[2,3-b]pyridine-3-carbonitrile] | 301 to 1000 nM | < 100 nM | 301 to 1000 nM | < 100 nM |
| CCNc1cc(Nc2ccc(C(=O)N3CCOCC3)c3c2OCCO3)nc2[nH]cc(C#N)c12 [Example 107, 4-(ethylamino)-6-((8-(morpholine-4-carbonyl)-2,3-dihydrobenzo[b] [1,4]dioxin-5-yl)amino)-1H-pyrrolo[2,3-b]pyridine-3-carbonitrile] | 301 to 1000 nM | < 100 nM | 301 to 1000 nM | < 100 nM |
| CCCNc1cc(Nc2ccc(C(=O)N3CCOCC3)c3c2OCCO3)nc2[nH]cc(C#N)c12 [Example 108, 6-((8-(morpholine-4-carbonyl)-2,3-dihydrobenzo[b] [1,4]dioxin-5-yl)amino)-4-(propylamino)-1H-pyrrolo[2,3-b]pyridine-3-carbonitrile] | 301 to 1000 nM | < 100 nM | 301 to 1000 nM | < 100 nM |
| COCCNc1cc(Nc2ccc(C(=O)N3CCOCC3)c3c2OCCO3)nc2[nH]cc(C#N)c12 [Example 109, 4-((2-methoxyethyl)amino)-6-((8-(morpholine-4-carbonyl)-2,3-dihydrobenzo[b] [1,4]dioxin-5-yl)amino)-1H-pyrrolo[2,3-b]pyridine-3-carbonitrile] | < 100 nM | < 100 nM | < 100 nM | < 100 nM |
| CS(=O)(=O)CCNc1cc(Nc2ccc(C(=O)N3CCOCC3)c3c2OCCO3)nc2[nH]cc(C#N)c12 [Example 110, 4-((2-(methylsulfonyl)ethyl)amino)-6-((8-(morpholine-4-carbonyl)-2,3-dihydrobenzo[b] [1,4]dioxin-5-yl)amino)-1H-pyrrolo[2,3-b]pyridine-3-carbonitrile] | 101 to 300 nM | < 100 nM | 301 to 1000 nM | < 100 nM |
| N#Cc1c[nH]c2nc(Nc3ccc(C(=O)N4CCOCC4)c4c3OCCO4)cc(NC3CC3)c12 [Example 111, 4-(cyclopropylamino)-6-((8-(morpholine-4-carbonyl)-2,3-dihydrobenzo[b] [1,4]dioxin-5-yl)amino)-1H-pyrrolo[2,3-b]pyridine-3-carbonitrile] | 101 to 300 nM | < 100 nM | 301 to 1000 nM | < 100 nM |
| CCNc1cc(Nc2ccc(C(=O)N3CCC(N4CCOCC4)CC3)c3c2OCCO3)nc2[nH]cc(C#N)c12 [Example 113, 4-(ethylamino)-6-((8-(4-morpholinopiperidine-1-carbonyl)-2,3-dihydrobenzo [b] [1,4]dioxin-5-yl)amino)-1H-pyrrolo[2,3-b]pyridine-3-carbonitrile] | < 100 nM | < 100 nM | 301 to 1000 nM | < 100 nM |
| CCCNc1cc(Nc2ccc(C(=O)N3CCC(N4CCOCC4)CC3)c3c2OCCO3)nc2[nH]cc(C#N)c12 [Example 114, 6-((8-(4-morpholinopiperidine-1-carbonyl)-2,3-dihydrobenzo [b] [1,4]dioxin-5-yl)amino)-4-(propylamino)-1H-pyrrolo[2,3-b]pyridine-3-carbonitrile] | < 100 nM | < 100 nM | < 100 nM | < 100 nM |
| CNc1cc(Nc2ccc(C(=O)N3CCC(N4CCOCC4)CC3)c3c2OCCO3)nc2[nH]cc(C#N)c12 [Example 115, 4-(methylamino)-6-((8-(4-morpholinopiperidine-1-carbonyl)-2,3-dihydrobenzo[b] [1,4]dioxin-5-yl)amino)-1H-pyrrolo[2,3-b]pyridine-3-carbonitrile] | 101 to 300 nM | < 100 nM | 101 to 300 nM | < 100 nM |
| N#Cc1c[nH]c2nc(Nc3ccc(C(=O)N4CCC(N5CCOCC5)CC4)c4c3OCCO4)cc(NC3CC3)c12 [Example 116, 4-(cyclopropylamino)-6-((8-(4-morpholinopiperidine-1-carbonyl)-2,3-dihydrobenzo [b] [1,4]dioxin-5-yl)amino)-1H-pyrrolo[2,3-b]pyridine-3-carbonitrile] | 101 to 300 nM | < 100 nM | 301 to 1000 nM | < 100 nM |
| N#Cc1c[nH]c2nc(Nc3ccc(C(=O)N4CCC(N5CCOCC5)CC4)c4c3OCCO4)cc(NC3CCC3)c12 [Example 117, 4-(cyclobutylamino)-6-((8-(4-morpholinopiperidine-1-carbonyl)-2,3-dihydrobenzo[b] [1,4]dioxin-5-yl)amino)-1H-pyrrolo[2,3-b]pyridine-3-carbonitrile] | < 100 nM | < 100 nM | 301 to 1000 nM | < 100 nM |
